Source: ChEMBL document CHEMBL1147001, “Synthesis and antibacterial activity of novel oxazolidinones bearing N-hydroxyacetamidine substituent” (2006)
Values after ≈ are worked out from the molar mass of the structure shown.

How the values were obtained:
Format in all cases: functional
Staphylococcus aureus [1] = assay: Antibacterial activity against methicillin-resistant Staphylococcus aureus DRCC 019
Staphylococcus aureus [2] = assay: Antibacterial activity against methicillin-susceptible Staphylococcus aureus DRCC 035
Haemophilus influenzae = assay: Antibacterial activity against beta lactamase negative Haemophilus influenzae DRCC 433
Staphylococcus aureus [3] = assay: Antibacterial activity against methicillin-resistant Staphylococcus aureus DRCC 446
Enterococcus faecalis [4] = assay: Antibacterial activity against vancomycin-resistant Enterococcus faecalis DRCC 153
Enterococcus faecalis [5] = assay: Antibacterial activity against vancomycin-resistant Enterococcus faecalis DRCC 154
Enterococcus faecalis [6] = assay: Antibacterial activity against vancomycin-susceptible Enterococcus faecalis DRCC 034
Staphylococcus aureus [7] = assay: Efficacy against po dosed mouse infected with Staphylococcus aureus ATCC 29213
Moraxella catarrhalis = assay: Antibacterial activity against beta lactamase negative Moraxella catarrhalis DRCC 300

SMILES	MIC (Staphylococcus aureus [1]) [µg/mL]	MIC (Staphylococcus aureus [2]) [µg/mL]	MIC (Haemophilus influenzae) [µg/mL]	MIC (Staphylococcus aureus [3]) [µg/mL]	MIC (Enterococcus faecalis [4]) [µg/mL]	MIC (Enterococcus faecalis [5]) [µg/mL]	MIC (Enterococcus faecalis [6]) [µg/mL]	ED50 (Staphylococcus aureus [7]) [mg/kg/day]	MIC (Moraxella catarrhalis) [µg/mL]
C/C(S)=N/C[C@H]1CN(c2ccc(N3CCN(CC(=N)NO)CC3)c(F)c2)C(=O)O1	1 (≈ 2.36 µM)	2 (≈ 4.71 µM)	4 (≈ 9.42 µM)	1 (≈ 2.36 µM)	1 (≈ 2.36 µM)	1 (≈ 2.36 µM)	1 (≈ 2.36 µM)		
N/C(CN1CCN(c2ccc(N3C[C@H](CNC(=O)C(F)F)OC3=O)cc2F)CC1)=N\O	4 (≈ 9 µM)	4 (≈ 9 µM)	4 (≈ 9 µM)	4 (≈ 9 µM)	2 (≈ 4.5 µM)	4 (≈ 9 µM)	4 (≈ 9 µM)	12.1	8 (≈ 18 µM)
COC(=O)NC[C@H]1CN(c2cc(F)c(N3CCN(CC(=N)NO)CC3)c(F)c2)C(=O)O1	1 (≈ 2.26 µM)	2 (≈ 4.52 µM)	8 (≈ 18.1 µM)	1 (≈ 2.26 µM)	1 (≈ 2.26 µM)	2 (≈ 4.52 µM)	1 (≈ 2.26 µM)	32.2	2 (≈ 4.52 µM)
C/C(S)=N/C[C@H]1CN(c2cc(F)c(N3CCN(CC(=N)NO)CC3)c(F)c2)C(=O)O1	0.25 (≈ 0.565 µM)	1 (≈ 2.26 µM)	4 (≈ 9.04 µM)	0.25 (≈ 0.565 µM)	0.5 (≈ 1.13 µM)	0.25 (≈ 0.565 µM)	0.5 (≈ 1.13 µM)	22.1	0.5 (≈ 1.13 µM)
CO/C(S)=N/C[C@H]1CN(c2ccc(N3CCN(CC(=N)NO)CC3)c(F)c2)C(=O)O1	0.5 (≈ 1.14 µM)	1 (≈ 2.27 µM)	8 (≈ 18.2 µM)	0.5 (≈ 1.14 µM)	0.5 (≈ 1.14 µM)	0.5 (≈ 1.14 µM)	0.5 (≈ 1.14 µM)	21.2	8 (≈ 18.2 µM)
N/C(CN1CCN(c2ccc(N3C[C@H](COc4ccon4)OC3=O)cc2F)CC1)=N\O	4 (≈ 9.21 µM)	16 (≈ 36.8 µM)	256 (≈ 589 µM)	4 (≈ 9.21 µM)	8 (≈ 18.4 µM)	16 (≈ 36.8 µM)	16 (≈ 36.8 µM)		8 (≈ 18.4 µM)
N/C(CN1CCN(c2c(F)cc(N3C[C@H](CNC(=O)C(F)F)OC3=O)cc2F)CC1)=N\O	1 (≈ 2.16 µM)	2 (≈ 4.33 µM)	4 (≈ 8.65 µM)	1 (≈ 2.16 µM)	0.5 (≈ 1.08 µM)	1 (≈ 2.16 µM)	1 (≈ 2.16 µM)	18.3	2 (≈ 4.33 µM)
CC(=O)NC[C@H]1CN(c2ccc(N3CCN(CC(=N)NO)CC3)c(F)c2)C(=O)O1	4 (≈ 9.79 µM)	16 (≈ 39.2 µM)	8 (≈ 19.6 µM)	4 (≈ 9.79 µM)	2 (≈ 4.9 µM)	8 (≈ 19.6 µM)	8 (≈ 19.6 µM)		8 (≈ 19.6 µM)
CO/C(S)=N/C[C@H]1CN(c2cc(F)c(N3CCN(CC(=N)NO)CC3)c(F)c2)C(=O)O1	0.25 (≈ 0.545 µM)	0.5 (≈ 1.09 µM)	4 (≈ 8.72 µM)	0.25 (≈ 0.545 µM)	0.25 (≈ 0.545 µM)	0.25 (≈ 0.545 µM)	0.25 (≈ 0.545 µM)	32.2	0.5 (≈ 1.09 µM)
N/C(CN1CCN(c2c(F)cc(N3C[C@H](COc4ccon4)OC3=O)cc2F)CC1)=N\O	2 (≈ 4.42 µM)	4 (≈ 8.84 µM)	> 32	2 (≈ 4.42 µM)	2 (≈ 4.42 µM)	4 (≈ 8.84 µM)	4 (≈ 8.84 µM)		16 (≈ 35.4 µM)
COC(=O)NC[C@H]1CN(c2ccc(N3CCN(CC(=N)NO)CC3)c(F)c2)C(=O)O1	16 (≈ 37.7 µM)	8 (≈ 18.8 µM)	32 (≈ 75.4 µM)	16 (≈ 37.7 µM)	4 (≈ 9.42 µM)	16 (≈ 37.7 µM)	4 (≈ 9.42 µM)		> 16
CC(=O)NC[C@H]1CN(c2cc(F)c(N3CCN(CC(=N)NO)CC3)c(F)c2)C(=O)O1	1 (≈ 2.35 µM)	2 (≈ 4.69 µM)	4 (≈ 9.38 µM)	1 (≈ 2.35 µM)	1 (≈ 2.35 µM)	1 (≈ 2.35 µM)	1 (≈ 2.35 µM)		4 (≈ 9.38 µM)
CC(=O)NC[C@H]1CN(c2ccc(N3CCOCC3)c(F)c2)C(=O)O1 [LINEZOLID]	1 (≈ 2.96 µM)		8 (≈ 23.7 µM)					5.3	8 (≈ 23.7 µM)
